# Measurements taken from ChEMBL document CHEMBL6134890, “Terminally Symmetric β-Turn Peptides for Multidrug-Resistant Bacterial Infections” (J Med Chem, 2025).
# Calls of active or inactive are those of the source. The calls are words filed in the database; no cut-off is given here.
# Key:
# Cell membrane [1] = assay: Disruption of cell membrane in multi-drug resistant Staphylococcus aureus assessed as appearance of ruptured cell surface at 2 times MIC measured for 120 mins by transmission electron microscopy analysis; assay type: subcellular
# Staphylococcus aureus [2] = assay: Bactericidal activity against multi-drug resistant Staphylococcus aureus assessed as eradication of bacterial growth at 2 times MIC measured after 6 hrs by time-kill kinetic assay relative to control; assay type: functional
# Staphylococcus aureus [3] = assay: Antibacterial activity against Staphylococcus aureus ATCC 25923 at sub-inhibitory concentration measured after 15 passages for 18 hrs; assay type: functional; set-up: scale not given: the % may be the effect or the level left
# Escherichia coli [4] = assay: Bactericidal activity against multi-drug resistant Escherichia coli assessed as eradication of bacterial growth at 2 times MIC measured after 6 hrs by time-kill kinetic assay relative to control; assay type: functional
# Acinetobacter baumannii = assay: Antimicrobial activity against multi-drug resistant Acinetobacter baumannii assessed as reduction in bacterial growth by broth dilution method; assay type: functional
# Cell membrane [5] = assay: Disruption of cell membrane in multi-drug resistant Escherichia coli assessed as appearance of ruptured cell surface at 2 times MIC measured for 120 mins by transmission electron microscopy analysis; assay type: subcellular
# Staphylococcus aureus [6] = assay: Bactericidal activity against multi-drug resistant Staphylococcus aureus assessed as eradication of bacterial growth at 2 times MIC by time-kill kinetic assay; assay type: functional, organism-based; settings: time 120-720 min
# Escherichia coli [7] = assay: Antimicrobial activity against multi-drug resistant Escherichia coli assessed as reduction in bacterial growth by broth dilution method; assay type: functional
# Cell membrane [8] = assay: Induction of cytoplasmic membrane depolarization in multi-drug resistant Staphylococcus aureus at 1 to 4 times MIC measured within 1 min by DiSC3-5 fluorescent dye based analysis
# Staphylococcus aureus [9] = assay: Antibiofilm activity against multi-drug resistant Staphylococcus aureus measured after 24 hrs by crystal violet staining based analysis; assay type: functional, organism-based
# [10] = Half life of the compound in 25% plasma; assay type: ADME, cell-free
# Escherichia coli [11] = assay: Antimicrobial activity against multi-drug resistant Escherichia coli assessed as fold increase in MIC in presence of NaCl; assay type: functional
# [12] = test system: Staphylococcus epidermidis; assay: Antimicrobial activity against multi-drug resistant Staphylococcus epidermidis assessed as reduction in bacterial growth by broth dilution method; assay type: functional
# Escherichia coli [13] = assay: Bactericidal activity against multi-drug resistant Escherichia coli assessed as eradication of bacterial growth at 2 times MIC by time-kill kinetic assay; assay type: functional, organism-based; settings: time 120-720 min
# Cell membrane [14] = assay: Disruption of cell membrane in multi-drug resistant Escherichia coli assessed as increase in red fluorescence intensity of PI at 2 times MIC measured for 2 hrs by fluorescence confocal microscopic imaging based analysis; assay type: subcellular
# Escherichia coli [15] = assay: Antimicrobial activity against multi-drug resistant Escherichia coli assessed as fold increase in MIC in presence of KCl; assay type: functional
# Escherichia coli [16] = assay: Antibiofilm activity in […] assessed as eradication of formed biofilm by measuring reduction in viable bacterial count measured after 12 hrs by confocal microscopy based analysis; assay type: functional, organism-based
# Escherichia coli [17] = assay: Antimicrobial activity against multi-drug resistant Escherichia coli assessed as reduction in bacterial growth at 2 times MIC measured after 1 hrs in presence of trypsin by microplate reader based analysis; assay type: functional, organism-based
# Staphylococcus aureus [18] = assay: Antibiofilm activity in methicillin-resistant Staphylococcus aureus assessed as eradication of formed biofilm by measuring reduction in viable bacterial count measured after 12 hrs by confocal microscopy based analysis; assay type: functional, organism-based
# [19] = Hemolytic activity in human Red blood cell assessed as hemolysis incubated for 1 hrs by microplate reader based analysis; assay type: toxicity; settings: erythrocyte
# Staphylococcus aureus [20] = assay: Antimicrobial activity against multi-drug resistant Staphylococcus aureus assessed as reduction in bacterial growth measured after 1 to 6 hrs in 25% plasma; assay type: functional, organism-based; settings: time 1-6 hrs
# Staphylococcus aureus [21] = assay: Antimicrobial activity against multi-drug resistant Staphylococcus aureus assessed as reduction in bacterial growth by broth dilution method; assay type: functional
# Cell membrane [22] = assay: Disruption of cell membrane in multi-drug resistant Staphylococcus aureus assessed as increase in red fluorescence intensity of PI at 2 times MIC measured for 2 hrs by fluorescence confocal microscopic imaging based analysis; assay type: subcellular
# Klebsiella pneumoniae = assay: Antimicrobial activity against multi-drug resistant Klebsiella pneumoniae assessed as reduction in bacterial growth by broth dilution method; assay type: functional
# Cell membrane [23] = assay: Induction of outer membrane permeabilization in multi-drug resistant Escherichia coli assessed as NPN uptake at 1 to 4 times MIC measured within 1 min by fluorescence based analysis; assay type: subcellular
# Escherichia coli [24] = assay: Antimicrobial activity against multi-drug resistant Escherichia coli assessed as reduction in bacterial growth at 2 times MIC measured after 1 hrs in presence of chymotrypsin by microplate reader based analysis; assay type: functional, organism-based
# Escherichia coli [25] = assay: Antimicrobial activity against Escherichia coli ATCC 25922 assessed as reduction in bacterial growth by broth dilution method; assay type: functional
# Escherichia coli [26] = assay: Antimicrobial activity against multi-drug resistant Escherichia coli assessed as fold increase in MIC in presence of FeCl3; assay type: functional
# Staphylococcus aureus [27] = assay: Antimicrobial activity against Staphylococcus aureus ATCC 25923 assessed as reduction in bacterial growth by broth dilution method; assay type: functional
# Escherichia coli [28] = assay: Antibiofilm activity against multi-drug resistant Escherichia coli measured after 24 hrs by crystal violet staining based analysis; assay type: functional, organism-based
# Enterococcus faecalis = assay: Antimicrobial activity against multi-drug resistant Enterococcus faecalis assessed as reduction in bacterial growth by broth dilution method; assay type: functional
# Cell membrane [29] = assay: Induction of cytoplasmic membrane depolarization in multi-drug resistant Escherichia coli at 1 to 4 times MIC measured within 1 min by DiSC3-5 fluorescent dye based analysis
# Escherichia coli [30] = assay: Antibiofilm activity against multi-drug resistant Escherichia coli at 0.5 times MIC measured after 24 hrs by crystal violet staining based analysis; assay type: functional, organism-based
# Escherichia coli [31] = assay: Bactericidal activity against multi-drug resistant Escherichia coli at 1 times MIC preincubated with LPS for 1 hrs followed by bacterial addition and measured after 18 hrs by microplate reader based analysis; assay type: functional, organism-based; settings: time 19.0 hrs
# Cell membrane [32] = assay: Disruption of cell membrane in multi-drug resistant Escherichia coli assessed as appearance of wrinkled cell surface at 2 times MIC measured for 120 mins by transmission electron microscopy analysis; assay type: subcellular
# Staphylococcus aureus [33] = assay: Antibiofilm activity in methicillin-resistant Staphylococcus aureus assessed as eradication of formed biofilm at 1 to 4 times MIC measured after 12 hrs by confocal microscopy based analysis; assay type: functional, organism-based
# Escherichia coli [34] = assay: Antibiofilm activity in […] assessed as eradication of formed biofilm at 1 to 4 times MIC measured after 12 hrs by confocal microscopy based analysis; assay type: functional, organism-based
# Staphylococcus aureus [35] = assay: Antimicrobial activity against multi-drug resistant Staphylococcus aureus assessed as reduction in bacterial growth at 2 times MIC measured after 1 hrs in presence of chymotrypsin by microplate reader based analysis; assay type: functional, organism-based
# Staphylococcus aureus [36] = assay: Antimicrobial activity against multi-drug resistant Staphylococcus aureus assessed as reduction in bacterial growth at 2 times MIC measured after 1 hrs in presence of trypsin by microplate reader based analysis; assay type: functional, organism-based
# Cell membrane [37] = assay: Disruption of cell membrane in multi-drug resistant Staphylococcus aureus assessed as appearance of wrinkled cell surface at 2 times MIC measured for 120 mins by transmission electron microscopy analysis; assay type: subcellular
smiles,measurement,setting,value
CC(C)C[C@H](NC(=O)[C@H](Cc1ccccc1)NC(=O)[C@@H]1CCCN1C(=O)[C@H](Cc1c[nH]c2ccccc12)NC(=O)[C@H](Cc1c[nH]c2ccccc12)NC(=O)[C@H](Cc1c[nH]c2ccccc12)NC(=O)[C@@H]1CCCN1C(=O)[C@H](Cc1ccccc1)NC(=O)[C@H](CCCNC(=N)N)NC(=O)[C@H](CCCNC(=N)N)NC(=O)[C@@H](N)C(C)C)C(=O)N[C@@H](CCCNC(=N)N)C(=O)N[C@@H](CCCNC(=N)N)C(=O)O,Activity,Cell membrane [1],Active
same,Activity,Staphylococcus aureus [2],100%
same,Activity,Staphylococcus aureus [3],100%
same,Activity,Escherichia coli [4],100%
same,MIC,Acinetobacter baumannii,32 µM
same,Activity,Cell membrane [5],Active
same,Activity,Staphylococcus aureus [6],Time-dependent-effect
same,MIC,Escherichia coli [7],16 µM
same,Activity,Cell membrane [8],Active
same,Activity,Staphylococcus aureus [9],Dose-dependent-effect
same,half-life,[10],102 min
same,fold change (FC),Escherichia coli [11],2
same,MIC,[12],4 µM
same,Activity,Escherichia coli [13],Time-dependent-effect
same,Activity,Cell membrane [14],Active
same,fold change (FC),Escherichia coli [15],2
same,Activity,Escherichia coli [16],Dose-dependent-effect
same,Activity,Escherichia coli [17],inactive
same,Activity,Staphylococcus aureus [18],Dose-dependent-effect
same,HC10,[19],33.13 µM
same,Activity,Staphylococcus aureus [20],inactive
same,MIC,Staphylococcus aureus [21],16 µM
same,Activity,Cell membrane [22],Active
same,MIC,Klebsiella pneumoniae,256 µM
same,Activity,Cell membrane [23],Active
same,Activity,Escherichia coli [24],inactive
same,MIC,Escherichia coli [25],16 µM
same,fold change (FC),Escherichia coli [26],2
same,MIC,Staphylococcus aureus [27],8 µM
same,Activity,Escherichia coli [28],Dose-dependent-effect
same,MIC,Enterococcus faecalis,4 µM
same,Activity,Cell membrane [29],Active
same,Activity,Escherichia coli [30],inactive
same,Activity,Escherichia coli [31],inactive
same,Activity,Cell membrane [32],Active
same,Activity,Staphylococcus aureus [33],Active
same,Activity,Escherichia coli [34],Active
same,Activity,Staphylococcus aureus [35],inactive
same,Activity,Staphylococcus aureus [36],inactive
same,Activity,Cell membrane [37],Active
